Assay results taken from PMC6264278, “Corydaline Inhibits Multiple Cytochrome P450 and UDP-Glucuronosyltransferase Enzyme Activities in Human Liver Microsomes” (Molecules, 2011).

Target: T1, CYP2A6 (Homo sapiens, UniProt P11509)
T1 construct: using pooled human liver microsomes; tissue BD Gentest Co. H161; host or cells: pooled human liver microsomes
T1 sequence (P11509 1-494): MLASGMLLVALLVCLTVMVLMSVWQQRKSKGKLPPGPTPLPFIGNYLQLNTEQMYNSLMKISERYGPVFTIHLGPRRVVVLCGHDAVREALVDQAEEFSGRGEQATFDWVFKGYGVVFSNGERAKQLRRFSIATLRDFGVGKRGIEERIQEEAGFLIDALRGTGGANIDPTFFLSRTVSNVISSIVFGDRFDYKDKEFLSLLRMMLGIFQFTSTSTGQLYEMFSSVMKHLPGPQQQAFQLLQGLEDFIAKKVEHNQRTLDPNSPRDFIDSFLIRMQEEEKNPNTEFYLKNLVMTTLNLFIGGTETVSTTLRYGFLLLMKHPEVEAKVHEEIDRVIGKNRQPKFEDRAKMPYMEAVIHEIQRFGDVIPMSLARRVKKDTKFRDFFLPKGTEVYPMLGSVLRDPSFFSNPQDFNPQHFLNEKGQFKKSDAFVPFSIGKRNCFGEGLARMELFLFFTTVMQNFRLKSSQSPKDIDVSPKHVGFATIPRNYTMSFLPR
Assay: CYP2A6 coumarin 7-hydroxylation inhibition, cocktail assay in pooled human liver microsomes
Type: in vitro ADME
Details: 2.5 μM coumarin, no inhibition at 200 μM of corydaline; for IC50 no preincubation, CYP2A6 coumarin 7-hydroxylation: pooled human liver microsomes (H161)
Experimental: Phenacetin O-deethylase, coumarin 7-hydroxylase, amodiaquine N-deethylase, diclofenac 4-hydroxylase, S-mephenytoin 4-hydroxylase, bufuralol hydroxylase, and midazolam 1’-hydroxylase activities were determined as probe activities for CYP1A2, CYP2A6, CYP2C8, CYP2C9, CYP2C19, CYP2D6, and CYP3A4, respectively, using cocktail incubation and liquid chromatography-tandem mass spectrometry (LC/MS/MS). The incubation mixtures were prepared in a total volume of 200 μL, as follows: pooled human liver microsomes (0.25 mg/mL), 1.3 mM NADPH, 3.3 mM MgCl2, 50 mM potassium phosphate buffer (pH 7.4), and a cocktail of probe substrates and various concentrations of corydaline (1−200 μM). The substrates were used at concentrations approximately equal to their respective Km values: 50 μM phenacetin, 2.5 μM coumarin, 2.5 μM amodiaquine, 10 μM diclofenac, 100 μM S-mephenytoin, 5 μM bufuralol, and 2.5 μM midazolam. After a 3-min pre-incubation period at 37 °C, the reactions were initiated by addition of an NADP generating system and incubated for 20 min at 37 °C in a shaking water bath. After incubation, the reaction was stopped by placement of the tubes on ice and addition of 100 μL of ice-cold methanol containing internal standards (^13C2,^15N-acetaminophen for acetaminophen and N-desethylamodiaquine, d5-7-hydroxycoumarin for 7-hydroxycoumarin, ^13C6-4-hydroxydiclofenac for 4-hydroxydiclofenac, d3-4-hydroxy-mephenytoin for 4-hydroxymephenytoin and hydroxymidazolam, d9-1-hydroxybufuralol for 1-hydroxybufuralol). The incubation mixtures were then centrifuged at 13,000 × g for 5 min. All incubations were performed in triplicate and the mean values were used. […] The reaction was started by addition of a cocktail of CYP probe substrates.
All 7 metabolites produced from the cocktail of CYP isoform-specific substrates were simultaneously determined by LC/MS/MS [25]. […] Quantification was performed by selected reaction monitoring (SRM) of the [M+H]^+ ion and the related product ion for each metabolite. […]

- IC50 no preincubation, CYP2A6 coumarin 7-hydroxylation: negligible inhibition
- IC50 no preincubation, CYP2A6 coumarin 7-hydroxylation (listed as corydaline): No inhibition **
- IC50 with preincubation, CYP2A6 coumarin 7-hydroxylation (pre-incubated 30 min with NADPH): No inhibition **
Structure (SMILES): COc1cc2c(cc1OC)C1C(C)c3ccc(OC)c(OC)c3CN1CC2 (stereo not drawn) [Corydaline, 2,3,9,10-tetramethoxy-13-methyl-5,8,13,13a-tetrahydro-6H-isoquino[3,2-a]isoquinoline]
